Measured values taken from patent US20250339566A1, “INHIBITORS OF FIBROBLAST ACTIVATION PROTEIN” (UNIVERSITEIT ANTWERPEN, priority 2022, published 2025).

Experiments:
[1] = In vivo stability of radiotracer in plasma; set-up: species or system CD1 nude mice; settings: for Mean % intact radiotracer ± SD: CD1 nude mice
Procedure: (§1) For all in vivo studies the following experimental procedure was used. Mice (7- to 8-week old female CD1−/− nude mice) were injected with 5.1-7.4 MBq of compound 1 (n=9) via the lateral tail vein. At 15, 30, 60 (n=3 for each time point) post-radiotracer injection (p.i.) the blood was collected in EDTA-coated tubes through cardiac puncture and the mice were euthanized by cervical dislocation.
From the collected blood, the plasma fraction was obtained by centrifugation at 4,000 g for 7 min, and mixed (200 μL) with an equal volume of cold MeCN to enable sample deproteination. After vigorously vortexing and γ-counting, the samples were centrifuged at 4000 g for 4 min, and the supernatant and the pellet were γ-counted separately to determine the amount of recovered radioactivity in the organic phase. The radioactive contents of the supernatant were analyzed by analytical radio-HPLC. The eluate fractions were collected every 30 s and counted for radioactivity in an automated γ-counter.

U87MG xenografts [2] = settings: mouse
Procedure: Dynamic whole-body PET images were acquired during 60 min. The average tumor or muscle activity per volume was obtained from the PET images and the decay-corrected time-activity curves (TACs) were extracted. At the end of the scans, the organs and tissues were harvested, weighed and the radioactivity in the samples was measured using an automatic γ-counter.

U87MG xenografts [3] = experiment: Ex vivo biodistribution in tumor-bearing animals; set-up: species or system mice; settings: 60 min p.i.
Procedure: In accordance with the PET results, the biodistribution study confirmed the high and specific tumor uptake of all FAP radioligands at 60 min post-injection (p.i.) (Table 6).

[4] = Partition coefficient (Log D) of radiotracer; type: physicochemical; settings: organic solvent / aqueous solution (solvents not named); mean with standard deviation (n=8)
Procedure: Radiotracer characterization: To assess the quality and suitability of compound 1 ([^18F]UAMC-4522) for specific applications, such as medical imaging, several parameters were determined. First, the decay-corrected RCY (Radiochemical Yield) was calculated. This indicates the percentage of the desired radioactively labeled molecule after correction for radioactive decay. It is calculated by dividing the amount of radioactively labeled molecule by the total radioactivity, taking into account the time elapsed since radiolabeling. Next, the Apparent Molar Activity (Am) was calculated. This represents the activity of the radiotracer per unit of substance (e.g. per micromole). It is calculated by dividing the activity of the radiotracer by the amount of labeled molecule used. Next, the Radiochemical Purity (RCP) was determined. This indicates the percentage of the radioactively labeled molecule relative to other chemical components or impurities. It is often determined using analytical techniques such as radio-HPLC (High-Performance Liquid Chromatography) or radio-TLC (Thin-Layer Chromatography). Finally, the Partition Coefficient (Log D) was calculated. This reflects the distribution of a substance between two solvents with different polarities. The Log D value represents the ratio of the concentrations of the substance in an organic solvent and an aqueous solution. […]

Human recombinant PREP = biological target: T1, Human recombinant PREP (Homo sapiens, UniProt P48147); experiment: PREP IC50 measurement (N-succinyl-Gly-Pro-AMC); type: biochemical; settings: FIG. 1, Compound 1 versus Compound 0
T1 construct: made in house; host or cells: E. coli BL21(DE3)
T1 sequence (P48147 1-710): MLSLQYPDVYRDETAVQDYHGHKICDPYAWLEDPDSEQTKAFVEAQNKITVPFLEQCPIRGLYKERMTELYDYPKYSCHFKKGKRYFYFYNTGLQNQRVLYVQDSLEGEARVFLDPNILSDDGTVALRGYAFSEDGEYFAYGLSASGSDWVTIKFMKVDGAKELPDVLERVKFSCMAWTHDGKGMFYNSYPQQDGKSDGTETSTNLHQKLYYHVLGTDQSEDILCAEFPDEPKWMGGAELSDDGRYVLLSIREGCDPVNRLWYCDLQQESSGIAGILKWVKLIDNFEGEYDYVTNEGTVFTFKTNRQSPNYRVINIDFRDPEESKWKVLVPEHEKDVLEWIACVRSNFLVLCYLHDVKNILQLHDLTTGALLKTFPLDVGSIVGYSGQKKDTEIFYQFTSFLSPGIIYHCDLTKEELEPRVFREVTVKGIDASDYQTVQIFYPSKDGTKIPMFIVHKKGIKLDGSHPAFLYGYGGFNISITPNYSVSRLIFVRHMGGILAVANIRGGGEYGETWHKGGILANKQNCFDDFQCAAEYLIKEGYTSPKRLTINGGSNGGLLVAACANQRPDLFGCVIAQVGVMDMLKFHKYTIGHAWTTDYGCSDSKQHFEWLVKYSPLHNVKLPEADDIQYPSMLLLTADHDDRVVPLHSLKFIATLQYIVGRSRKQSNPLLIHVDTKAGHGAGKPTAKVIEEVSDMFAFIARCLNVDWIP
Description: Used Enzymes in these Assays: • A gateway-entry clone for human FAP was purchased from Dharmacon (Accession number DQ891423) and the human secretion signal was replaced with the HoneyBee mellitin secretion signal. For transfection and expression of FAP in Sf9 insect cells the C-terminal BaculoDirect kit from LifeTechnologies was used. The enzyme was purified from the supernatant of the insect cells using immobilized Ni-chelating chromatography (GE healthcare, Diegem, Belgium), followed by anion-exchange chromatography using a 1 mL HiTrap Q and size exclusion chromatography using the Superdex 200 column (GE healthcare, Diegem, Belgium). • Human recombinant PREP was expressed in BL21(DE3) cells and purified using immobilized Co-chelating chromatography (GE healthcare), followed by anion-exchange chromatography on a 1 ml Mono Q column (GE healthcare). • DPP4 was purified from human seminal plasma. • Gateway-entry clones for human DPP8 and DPP9 were purchased from Dharmacon (Accession numbers DQ891733 and DQ892325 respectively). For transfection and expression of DPP8 and DPP9 in Sf9 insect cells the N-terminal BaculoDirect kit from LifeTechnologies was used. The enzymes were purified using immobilized Ni-chelating chromatography (GE healthcare, Diegem, Belgium), followed by anion-exchange chromatography using a 1 mL Mono Q (GE healthcare, Diegem, Belgium). • Recombinant human DPP2 was purchased from R&D.
Eight concentrations of inhibitors/probe were tested. The final DMSO concentration was kept constant during the experiment to exclude any effects. Inhibitors were pre-incubated with the enzyme for 15 minutes at 37° C., afterwards the substrate was added and the velocities of AMC release were measured kinetically at λex=380 nm, λem=465 nm for at least 10 minutes at 37° C. […] Eight concentrations of inhibitors were tested. The final DMSO concentration in kept constant during the experiment to exclude any effects. Inhibitors were pre-incubated with the enzyme for 15 minutes at 37° C., afterwards the substrate was added and the velocities of AMC release were measured kinetically at λex=380 nm, λem=465 nm for at least 10 minutes at 37° C. […] At least eight different inhibitor concentrations were used. The final DMSO concentration is kept constant during the experiment to exclude any effects. Inhibitors were pre-incubated with the enzyme for 15 minutes at 37° C., afterwards the substrate was added and the velocities of pNA release were measured kinetically at 405 nm for at least 10 minutes at 37° C. Measurements were done on the Infinite 200 (Tecan Group Ltd.) and the Magellan software was used to process the data. • For DPP2: Initial velocity measurements were carried out. Lys-Ala-pNA was used as the substrate at a concentration of 1 mM at pH 5.5 (100 mM NaAc, 10 mM EDTA, 14 μg/mL aprotinin). Inhibitors were tested at one concentration, 5 μM, being the final concentration in the well. Inhibitors were pre-incubated with the enzyme for 15 minutes at 37° C., afterwards the substrate was added and the velocities of pNA release were measured kinetically at 405 nm for at least 10 minutes at 37° C. Measurements were done on the Infinite 200 (Tecan Group Ltd.) and the Magellan software was used to process the data.

[5] = Biodistribution in control animals (FIG. 3); type: in vivo; settings: FIG. 3, normal CD1 nude mice, 15, 30, 60 min p.i.
Procedure: as §1
The uptake levels of the tracers were expressed as percentage of the injected dose per gram (% ID g^−1).
FIG. 3 summarizes the tissue biodistribution (% injected dose/gram of tissue) of [^18F]UAMC-4522 (compound 1) and of compound 0 in normal CD1 nude mice after 15, 30, and 60 min p.i. (n=3 per timepoint).

[6] = Metabolic stability comparison (FIG. 2); settings: FIG. 2, Compound 1 versus Compound 0
[7] = female, CD1-/- nude, in vivo, 60 min

Mean % intact radiotracer ± SD ([1]; 15 min p.i.): 74.84 ± 6.62%
Mean % intact radiotracer ± SD ([1]; 30 min p.i.): 60.23 ± 3.60%
Mean % intact radiotracer ± SD ([1]; 60 min p.i.): 56.47 ± 7.81%
Mean % intact radiotracer ± SD ([1]; time 0 min): 99.12 ± 0.51%
in vivo stability (in words) ([1]; compared with the control [68Ga]Ga-DOTA-FAPI-04): significantly higher
tumor uptake (PET) (U87MG xenografts [2]; [7]): 10.16±2.22 % ID/mL
uptake in the muscle (PET) (U87MG xenografts [2]; [7]): 2.20±0.33 % ID/mL
uptake into tumor tissue in vivo (in words) (U87MG xenografts [2]): significantly higher uptake
nonspecific tumor uptake (in words) (U87MG xenografts [2]; in vivo): lower nonspecific tumor uptake
tumor uptake after pre-injection of UAMC-1110 (blocking study, in words) (U87MG xenografts [2]; in vivo): decrease in tumor uptake
Tumor (% ID/g) (U87MG xenografts [3]): 10.98 ± 1.73 % ID/g
Tumor-to-blood (U87MG xenografts [3]): 6.35 ± 1.08
Tumor-to-liver (U87MG xenografts [3]): 4.77 ± 0.58
Tumor-to-muscle (U87MG xenografts [3]): 6.54 ± 1.36
Tumor-to-small intestine (U87MG xenografts [3]): 2.43 ± 0.12
logD [4]: -1.77 ± 0.01
selectivity for FAP with respect to PREP (in words) (Human recombinant PREP): significantly higher selectivity for FAP
metabolic stability (in words) [6]: significantly higher metabolic stability
SMILES: [2H]C([2H])([18F])[N+](C)(C)CCCOc1ccc2nccc(C(=O)NCC(=O)N3CC(F)(F)C[C@H]3C#N)c2c1 [Compound 1]
tumor time-activity curve (in words) (U87MG xenografts [2]; in vivo): early peak uptake in the tumor followed by retention or slight increase in the tumor
biodistribution / excretion profile (in words) [5]: biodistribution profile including urinary excretion
